Assay results: patent US20150105252A1, “SUBSTITUTED PYRAZOLES AS HERBICIDES” (E I DU PONT DE NEMOURS AND COMPANY, priority 2013, published 2015)

Experiments:
barnyardgrass [1] = assay: Test A preemergence; format: in vivo, Echinochloa crus-galli; settings: preemergence
Outline: (§1)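 Injury readout: eye-scored versus untreated controls, 0 to 100. Exposure period: ~10 days, greenhouse. Application: soil-directed spray over sown seed (pre) or spray on seedlings 2–10 cm tall with one or two leaves (post), compound carried in non-phytotoxic solvent including surfactant.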

soybean = assay: Test C preemergence; format: in vivo, Glycine max
Outline: (§2)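 Scores of 0 (no effect) to 100 (complete control) were assigned by eye after 13–15 days, comparing treated pots with controls. Soil-applied (preemergence) treatments went onto seeds in loam and sand; foliar (postemergence) treatments onto 1- to 4-leaf plants in peat medium.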

johnsongrass = assay: Test C preemergence; format: in vivo, Sorghum halepense
Outline: as §2

pigweed = assay: Test C preemergence; format: in vivo, Amaranthus retroflexus
Outline: as §2

velvetleaf = assay: Test C preemergence; format: in vivo, Abutilon theophrasti
Outline: as §2

morningglory = assay: Test A postemergence; format: in vivo, Ipomoea spp.
Outline: as §1

corn [2] = assay: Test A preemergence; format: in vivo, Zea mays; settings: preemergence
Outline: as §1

barnyardgrass [3] = assay: Test C preemergence; format: in vivo, Echinochloa crus-galli
Outline: as §2

wheat = assay: Test A postemergence; format: in vivo, Triticum aestivum
Outline: as §1

foxtail, giant [4] = assay: Test A preemergence; format: in vivo, Setaria faberii; settings: preemergence
Outline: as §1

foxtail, giant [5] = assay: Test C preemergence; format: in vivo, Setaria faberii
Outline: as §2

crabgrass, large = assay: Test C preemergence; format: in vivo, Digitaria sanguinalis
Outline: as §2

corn [6] = assay: Test C preemergence; format: in vivo, Zea mays
Outline: as §2

waterhemp = assay: Test C preemergence; format: in vivo, Amaranthus rudis
Outline: as §2

foxtail, giant [7] = assay: Test A postemergence; format: in vivo, Setaria faberii
Outline: as §1

[8] = 125 g ai/ha, visual injury, 0 to 100 scale, approx. 10 days
[9] = 500 g ai/ha, visual injury after approx. 10 days, 0 to 100 scale (0 no effect, 100 complete control)
[10] = Preemergence, 16 g ai/ha, scale 0 to 100
[11] = preemergence, 31 g ai/ha, visual rating, scale 0 to 100 (0 no effect, 100 complete control), 13 to 15 days
[12] = preemergence, 62 g ai/ha, 13 to 15 days, scale 0 to 100, 0 = no effect, 100 = complete control
[13] = preemergence, 125 g ai/ha, scale 0 to 100, 0 is no effect, 100 is complete control
[14] = Postemergence, 500 g ai/ha, visual rating after approx. 10 days, 0 to 100 scale (0 no effect, 100 complete control)
[15] = postemergence, 125 g ai/ha, about 10 days, visual rating on 0 to 100 scale (0 no effect, 100 complete control)
[16] = preemergence, 31 g ai/ha, scale 0 to 100 (0 no effect, 100 complete control), 13 to 15 days

CCc1cc(C(=O)NOC(C)C)nn1Cc1ccnc(C(F)(F)F)c1 [Compound 101]
95: Plant response rating, Corn (corn [6]; [12]) | Waterhemp plant response rating (waterhemp; [11])
80: Pigweed plant response rating (pigweed; [11]) | Wheat plant response rating (wheat; [15]) | Foxtail, Giant plant response rating (foxtail, giant [5]; [11]) | Crabgrass, Large plant response rating (crabgrass, large; [11]) | Foxtail, Giant plant response rating (foxtail, giant [7]; [15])
35: Velvetleaf plant response rating (velvetleaf; [11])
40: Plant response rating, Soybean (soybean; [12]) | Plant response rating, Johnsongrass (johnsongrass; [12])
70: Corn plant response rating (corn [2]; [8])
98: Plant response rating, Foxtail, Giant (foxtail, giant [5]; [12])
65: Plant response rating, Crabgrass, Large (crabgrass, large; [10])
90: Plant response rating, Pigweed (pigweed; [12]) | Foxtail, Giant plant response rating (foxtail, giant [7]; [14])
20: Johnsongrass plant response rating (johnsongrass; [11]) | Plant response rating, Pigweed (pigweed; [10])
5: Soybean plant response rating (soybean; [11]) | Plant response rating, Barnyardgrass (barnyardgrass [3]; [10])
0: Plant response rating, Soybean (soybean; [10]) | Plant response rating, Johnsongrass (johnsongrass; [10]) | Plant response rating, Velvetleaf (velvetleaf; [10]) | Plant response rating, Corn (corn [6]; [10]) | Corn plant response rating (corn [6]; [11])
50: Soybean plant response rating (soybean; [13])
15: Plant response rating, Foxtail, Giant (foxtail, giant [5]; [10])
85: Plant response rating, Waterhemp (waterhemp; [10])
100: Barnyardgrass plant response rating (barnyardgrass [1]; [8]) | Barnyardgrass plant response rating (barnyardgrass [1]; [9]) | Pigweed plant response rating (pigweed; [13]) | Velvetleaf plant response rating (velvetleaf; [13]) | Morningglory plant response rating (morningglory; [14]) | Morningglory plant response rating (morningglory; [15]) | Corn plant response rating (corn [2]; [9]) | Plant response rating, Barnyardgrass (barnyardgrass [3]; [12]) | Barnyardgrass plant response rating (barnyardgrass [3]; [13]) | Wheat plant response rating (wheat; [14]) | Foxtail, Giant plant response rating (foxtail, giant [4]; [8]) | Foxtail, Giant plant response rating (foxtail, giant [4]; [9]) | Foxtail, Giant plant response rating (foxtail, giant [5]; [13]) | Plant response rating, Crabgrass, Large (crabgrass, large; [12]) | Crabgrass, Large plant response rating (crabgrass, large; [13]) | Corn plant response rating (corn [6]; [13]) | Plant response rating, Waterhemp (waterhemp; [12]) | Waterhemp plant response rating (waterhemp; [13])
75: Johnsongrass plant response rating (johnsongrass; [13]) | Plant response rating, Velvetleaf (velvetleaf; [12]) | Barnyardgrass plant response rating (barnyardgrass [3]; [16])

CCc1cc(C(=O)NC(C)C)nn1Cc1ccnc(C(F)(F)F)c1 [Compound 103]
75: Corn plant response rating (corn [6]; [11])
90: Soybean plant response rating (soybean; [11]) | Morningglory plant response rating (morningglory; [15]) | Corn plant response rating (corn [2]; [9]) | Wheat plant response rating (wheat; [14]) | Foxtail, Giant plant response rating (foxtail, giant [7]; [14]) | Foxtail, Giant plant response rating (foxtail, giant [7]; [15])
80: Wheat plant response rating (wheat; [15])
85: Johnsongrass plant response rating (johnsongrass; [11])
100: Barnyardgrass plant response rating (barnyardgrass [1]; [8]) | Barnyardgrass plant response rating (barnyardgrass [1]; [9]) | Plant response rating (scale of 0 to 100), Soybean (soybean; Preemergence, 250 g ai/ha) | Plant response rating, Soybean (soybean; [12]) | Soybean plant response rating (soybean; [13]) | Plant response rating (scale of 0 to 100), Johnsongrass (johnsongrass; Preemergence, 250 g ai/ha) | Plant response rating, Johnsongrass (johnsongrass; [12]) | Johnsongrass plant response rating (johnsongrass; [13]) | Plant response rating (scale of 0 to 100), Pigweed (pigweed; Preemergence, 250 g ai/ha) | Pigweed plant response rating (pigweed; [11]) | Plant response rating, Pigweed (pigweed; [12]) | Pigweed plant response rating (pigweed; [13]) | Plant response rating (scale of 0 to 100), Velvetleaf (velvetleaf; Preemergence, 250 g ai/ha) | Velvetleaf plant response rating (velvetleaf; [11]) | Plant response rating, Velvetleaf (velvetleaf; [12]) | Velvetleaf plant response rating (velvetleaf; [13]) | Morningglory plant response rating (morningglory; [14]) | Plant response rating (scale of 0 to 100), Barnyardgrass (barnyardgrass [3]; Preemergence, 250 g ai/ha) | Barnyardgrass plant response rating (barnyardgrass [3]; [16]) | Plant response rating, Barnyardgrass (barnyardgrass [3]; [12]) | Barnyardgrass plant response rating (barnyardgrass [3]; [13]) | Foxtail, Giant plant response rating (foxtail, giant [4]; [8]) | Foxtail, Giant plant response rating (foxtail, giant [4]; [9]) | Plant response rating (scale of 0 to 100), Foxtail, Giant (foxtail, giant [5]; Preemergence, 250 g ai/ha) | Foxtail, Giant plant response rating (foxtail, giant [5]; [11]) | Plant response rating, Foxtail, Giant (foxtail, giant [5]; [12]) | Foxtail, Giant plant response rating (foxtail, giant [5]; [13]) | Plant response rating (scale of 0 to 100), Crabgrass, Large (crabgrass, large; Preemergence, 250 g ai/ha) | Crabgrass, Large plant response rating (crabgrass, large; [11]) | Plant response rating, Crabgrass, Large (crabgrass, large; [12]) | Crabgrass, Large plant response rating (crabgrass, large; [13]) | Plant response rating (scale of 0 to 100), Corn (corn [6]; Preemergence, 250 g ai/ha) | Plant response rating, Corn (corn [6]; [12]) | Corn plant response rating (corn [6]; [13]) | Plant response rating (scale of 0 to 100), Waterhemp (waterhemp; Preemergence, 250 g ai/ha) | Waterhemp plant response rating (waterhemp; [11]) | Plant response rating, Waterhemp (waterhemp; [12]) | Waterhemp plant response rating (waterhemp; [13])
70: Corn plant response rating (corn [2]; [8])
